# According to PMC9457997, “2-(Nitroaryl)-5-Substituted-1,3,4-Thiadiazole Derivatives with Antiprotozoal Activities: In Vitro and In Vivo Study” (Molecules, 2022):
# Like-named read-outs stand apart in the source and are kept apart here.
# Tests used:
# [1] = tested on: T. cruzi, strain Tulahuen C4 amastigotes; test: In vitro activity against T. cruzi amastigotes; format: cell-based; conditions: Trypanosoma cruzi, read-out: T. cruzi IC50
# Experimental: Although all of the compounds had been tested against Leishmania major promastigotes in our previous works, to deeper evaluate the antitrypanosomatid potential of the selected nitroimidazole derivatives, their activity was measured against L. donovani axenic amastigotes and T. cruzi amastigotes (Table 2). Miltefosine and benznidazole were used as reference drugs. Compounds 18a and 18g were also tested against L. donovani intracellular amastigotes in peritoneal murine macrophages in a further assay. […]. In vitro activity against the protozoan parasites T. b. rhodesiense, T.cruzi, L. donovani and cytotoxicity assessment against L6 cells were determined as reported previously. The following strains, parasite forms, and positive controls were used: T. b. rhodesiense STIB 900 bloodstream forms, melarsoprol (received from WHO, Arsobal Sanofi); T.cruzi Tulahuen C2C4 intracellular amastigotes, benznidazole (received from DNDi synthesized by Epichem Pty Ltd., Murdoch, Australia); L. donovani MHOM-ET-67/L82 axenically grown amastigotes and intracellular amastigotes, miltefosine (Sigma M5571). L6 rat skeletal myoblasts (ATCC CRL-1458), podophyllotoxin (Sigma P4405).
# T. b. rhodesiense = conditions: cited from earlier work
# HAT mouse model = conditions: cited from earlier work
# [2] = parameters: method as in PMID 29191556; conditions: cited from earlier work
# T. b. brucei = conditions: cited from earlier work
# T. brucei = conditions: cited from earlier work
# [3] = tested on: T. b. rhodesiense, strain STIB 900 trypomastigotes; test: In vitro activity against T. b. rhodesiense STIB 900 bloodstream forms; format: cell-based; conditions: Trypanosoma brucei, read-out: T. b. rhodesiense IC50
# in vitro = conditions: rat
# [4] = tested on: L. donovani intracellular amastigotes in peritoneal murine macrophages; test: In vitro activity against L. donovani intracellular amastigotes; format: cell-based; conditions: Leishmania donovani, Macrophage, means of two independent assays
# Experimental: (§1) Miltefosine and benznidazole were used as reference drugs. […] In vitro activity against the protozoan parasites T. b. rhodesiense, T.cruzi, L. donovani and cytotoxicity assessment against L6 cells were determined as reported previously. The following strains, parasite forms, and positive controls were used: T. b. rhodesiense STIB 900 bloodstream forms, melarsoprol (received from WHO, Arsobal Sanofi); T.cruzi Tulahuen C2C4 intracellular amastigotes, benznidazole (received from DNDi synthesized by Epichem Pty Ltd., Murdoch, Australia); L. donovani MHOM-ET-67/L82 axenically grown amastigotes and intracellular amastigotes, miltefosine (Sigma M5571).
# [5] = tested on: L. donovani, strain MHOM-ET-67/L82 axenically grown amastigotes; test: In vitro activity against L. donovani axenic amastigotes; format: cell-based; conditions: for IC50: Leishmania donovani, strain MHOM-ET-67/L82 axenically grown amastigotes, means of two independent assays; for TDR criteria class against L. donovani amastigotes: TDR criteria for antiparasitic activity
# Experimental: as §1
# [6] = tested on: T. b. rhodesiense STIB 900; test: T. b. rhodesiense STIB 900 acute mouse model of HAT; format: in vivo; conditions: for Cured/Infected / Mean Survival Days (MSD): 4 × 50 mg/kg i.p., acute mouse model STIB 900
# Experimental: […]. All of these compounds were administered at an intraperitoneal dose of 50 mg/kg/day for 4 days. […] A total of three of the four mice treated with morpholine derivative 18b were cured and the parasite was not found in the blood of one mouse until day 60 of infection. […] All of the mice treated with compound 18f survived 60 days, but one mouse was parasite positive. Compound 18d presented the least cure rate; a total of three mice were parasite positive and died between days 15 and 20, and one mouse survived.
# The in vivo efficacy was determined in the T. b. rhodesiense STIB 900 acute mouse model that mimics the first stage of the disease as described earlier. In vivo efficacy studies in mice were conducted at the Swiss Tropical and Public Health Institute (Basel) (License number 2813), according to the rules and regulations for the protection of animal rights (“Tierschutzverordnung”) of the Swiss “Bundesamt für Veterinärwesen”. They were approved by the veterinary office of Canton Basel-Stadt, Switzerland.
# T. b. gambiense = conditions: gambiense HAT patients; cited from earlier work
# Cytotoxicity in L6 cells = conditions: rat
# [7] = read-out: IC50 against T. b. rhodesiense
# [8] = read-out: IC50 against T. b. brucei
# [9] = strain STIB 900 trypomastigotes (BSF form), means of two independent assays
smiles,measurement,setting,value
"O=C(Cn1ccnc1[N+](=O)[O-])NCc1ccccc1 [Benznidazole, reference compound]",IC50,[1],1430 nM
O=[N+]([O-])c1nccn1CCCNc1ccnc2c(Cl)cccc12 [Compound 2],IC50,T. b. rhodesiense; [7],1290 nM
O=[N+]([O-])c1cn2c(n1)[S+]([O-])CC(OCc1ccc(OC(F)(F)F)cc1)C2 (stereo not drawn) [Compound 3],cure rate in an acute infection mouse model of HAT,HAT mouse model,100%
same,metabolic stability,[2],good metabolic stability
O=C1NC(c2ccccc2)=CN2C=C([N+](=O)[O-])NC12 (stereo not drawn) [Compound 5a],IC50,T. b. brucei; read-out: IC50 against T. brucei brucei,220 nM
O=c1c2nc([N+](=O)[O-])cn2ccn1Cc1ccc(-c2ccc(OC(F)(F)F)cc2)cn1 [Compound 6],IC50,T. b. brucei; [8],2 nM
CN(C)c1nc(N/N=C/c2ccc([N+](=O)[O-])o2)nc(N(C)C)n1 [Compound 7],IC50,T. b. rhodesiense; read-out: IC50 against trypomastigotes of T. brucei rhodesiense,3 nM
CCCCCCCOC(=O)N/N=C/c1ccc([N+](=O)[O-])o1 [Compound 8],IC50,T. brucei; read-out: IC50 against the BSF form of T. brucei,120 nM
C=CCOc1ccc(NC(=O)c2ccc([N+](=O)[O-])o2)cc1C(F)(F)F [Compound 9],IC50,T. b. brucei; [8],2.4 nM
same,IC50,T. b. rhodesiense; [7],2.9 nM
O=C(N/N=C\c1coc([N+](=O)[O-])c1)C12CC3CC(C1)CC(C(=O)N/N=C/c1ccc([N+](=O)[O-])o1)(C3)C2 [Compound 10],IC50,T. brucei; read-out: IC50 against T. brucei,75 nM
CC(C)N(CCO/N=C/c1ccc([N+](=O)[O-])s1)C(C)C [Compound 11],"MIC, trypanocidal activity",T. brucei,1 µg/mL
O=[N+]([O-])c1ccc(-c2nnc(N3CCCCC3)s2)o1 [Compound 16a],IC50,[3]; [9],242 nM
same,IC50,in vitro,2490 nM
O=[N+]([O-])c1ccc(-c2nnc(N3CCOCC3)s2)o1 [Compound 16b],IC50,[3]; [9],914 nM
same,IC50,in vitro,5670 nM
O=[N+]([O-])c1ccc(-c2nnc(N3CCNCC3)s2)o1 [Compound 16c],IC50,[3]; [9],60 nM
same,IC50,in vitro,1060 nM
CN1CCN(c2nnc(-c3ccc([N+](=O)[O-])o3)s2)CC1 [Compound 16d],IC50,[3]; [9],241 nM
same,IC50,in vitro,1360 nM
O=[N+]([O-])c1ccc(-c2nnc(N3CCN(c4ccccc4)CC3)s2)o1 [Compound 16e],IC50,[3]; [9],540 nM
same,IC50,in vitro,6430 nM
CC(=O)N1CCN(c2nnc(-c3ccc([N+](=O)[O-])o3)s2)CC1 [Compound 16f],IC50,[3]; [9],81 nM
same,IC50,in vitro,2490 nM
O=[N+]([O-])c1ccc(-c2nnc(N3CCCCC3)s2)s1 [Compound 17a],IC50,[3]; [9],647 nM
same,IC50,in vitro,226000 nM
O=[N+]([O-])c1ccc(-c2nnc(N3CCOCC3)s2)s1 [Compound 17b],IC50,[3]; [9],1180 nM
same,IC50,in vitro,> 302000 nM
O=[N+]([O-])c1ccc(-c2nnc(N3CCNCC3)s2)s1 [Compound 17c],IC50,[3]; [9],346 nM
same,IC50,in vitro,6380 nM
CN1CCN(c2nnc(-c3ccc([N+](=O)[O-])s3)s2)CC1 [Compound 17d],IC50,[3]; [9],1150 nM
same,IC50,in vitro,40800 nM
O=[N+]([O-])c1ccc(-c2nnc(N3CCN(c4ccccc4)CC3)s2)s1 [Compound 17e],IC50,[3]; [9],11800 nM
same,IC50,in vitro,56500 nM
CC(=O)N1CCN(c2nnc(-c3ccc([N+](=O)[O-])s3)s2)CC1 [Compound 17f],IC50,[3]; [9],1890 nM
same,IC50,in vitro,225000 nM
O=C(c1ccccc1)N1CCN(c2nnc(-c3ccc([N+](=O)[O-])s3)s2)CC1 [Compound 17g],IC50,[3]; [9],438 nM
same,IC50,in vitro,51000 nM
Cn1c([N+](=O)[O-])cnc1-c1nnc(N2CCCCC2)s1 [Compound 18a],IC50,[4],4760 nM
same,IC50,[3]; [9],510 nM
same,IC50,in vitro,> 306000 nM
same,IC50,[1],897 nM
same,IC50,[5],476 nM
same,TDR criteria class against L. donovani amastigotes,[5],active
Cn1c([N+](=O)[O-])cnc1-c1nnc(N2CCOCC2)s1 [Compound 18b],IC50,[3]; [9],145 nM
same,IC50,in vitro,265000 nM
same,IC50,[1],294 nM
same,IC50,[5],445 nM
same,TDR criteria class against L. donovani amastigotes,[5],active
same,Cured/Infected,[6],3/4
same,Mean Survival Days (MSD),[6],>60 days
Cn1c([N+](=O)[O-])cnc1-c1nnc(N2CCNCC2)s1 [Compound 18c],IC50,[3]; [9],12 nM
same,IC50,in vitro,140000 nM
same,IC50,[1],125 nM
same,IC50,[5],3230 nM
same,death during treatment,"[6]; 50 mg/kg/day i.p., mouse excluded from the experimental group",One mouse died on day six
same,Cured/Infected,[6],3/3
same,Mean Survival Days (MSD),[6],>60 days
CN1CCN(c2nnc(-c3ncc([N+](=O)[O-])n3C)s2)CC1 [Compound 18d],IC50,[3]; [9],142 nM
same,IC50,in vitro,> 290000 nM
same,IC50,[1],462 nM
same,Cured/Infected,[6],1/4
same,Mean Survival Days (MSD),[6],>27.75 days
Cn1c([N+](=O)[O-])cnc1-c1nnc(N2CCN(c3ccccc3)CC2)s1 [Compound 18e],IC50,[3]; [9],285 nM
same,IC50,in vitro,163000 nM
CC(=O)N1CCN(c2nnc(-c3ncc([N+](=O)[O-])n3C)s2)CC1 [Compound 18f],IC50,[3]; [9],89 nM
same,IC50,in vitro,> 267000 nM
same,IC50,[1],468 nM
same,Cured/Infected,[6],3/4
same,Mean Survival Days (MSD),[6],>60 days
Cn1c([N+](=O)[O-])cnc1-c1nnc(N2CCN(C(=O)c3ccccc3)CC2)s1 [Compound 18g],IC50,[1],300 nM
same,TDR criteria class against L. donovani amastigotes,[5],active
same,cure rate,"[6]; 50 mg/kg/day i.p. for 4 days, until 60 days after infection",100%
same,Cured/Infected,[6],4/4
same,Mean Survival Days (MSD),[6],>60 days
CSc1ccc(OCc2ncc([N+](=O)[O-])n2C)cc1 [Fexinidazole],cure rate,T. b. gambiense,91%
"Nc1nc(N)nc(Nc2ccc([As]3SCC(CO)S3)cc2)n1 (stereo not drawn) [Melarsoprol, reference compound]",IC50,[3],4 nM
same,IC50,Cytotoxicity in L6 cells,9600 nM
"CCCCCCCCCCCCCCCCOP(=O)([O-])OCC[N+](C)(C)C [Miltefosine, reference compound]",IC50,[4],1840 nM
same,IC50,[5],359 nM
COc1cc([C@@H]2c3cc4c(cc3[C@H](O)[C@H]3COC(=O)[C@H]23)OCO4)cc(OC)c1OC [Podophyllotoxin],IC50,Cytotoxicity in L6 cells,6 nM
